Laboratory results published in patent US20240238242A1, “EGCG buccal tablet and use thereof” (priority 2023, published 2024).
Read-outs that look alike come from different tables or passages of the source.

Legend:
[1] = rats, intragastric decaffeinated green tea (DGT) 200 mg/kg; cited from earlier work
[2] = system: Madin-darby canine kidney cells (MDCK)
[3] = system: Influenza B virus (B/Lee); test: Inactivation efficiency against influenza B virus B/Lee strain (residual TCID50 on MDCK cells); format: cell-based; conditions: for average inactivation efficiency against virus: B/Lee virus, two experiments

O=C(O[C@@H]1Cc2c(O)cc(O)cc2O[C@@H]1c1cc(O)c(O)c(O)c1)c1cc(O)c(O)c(O)c1 [EGCG, Epigallocatechin gallate]
bioavailability of EGCG [1]: 0.1%
CPE test / cytotoxicity, negative control group [2]: −
Cytotoxicity / CPE in cell wells 1-10, negative control group [2]: −
Cytotoxicity / CPE in cell wells, negative control group (EGCG + culture medium) [2]: −
Cytotoxicity / CPE in cell wells, negative control group (wells 1-10) [2]: −
Cytotoxicity / CPE in negative control group [2]: −
Cytotoxicity / CPE per cell well, negative control group [2]: −
Cytotoxicity / CPE test, negative control group [2]: −
cell status in negative control group ([2]; MDCK cells, 0.2 mM group): good growth status
cytotoxicity in negative control group ([2]; MDCK cells, 1 mM group): cytotoxicity was observed
cytotoxicity in negative control group ([2]; MDCK cells, 5 mM group): cytotoxicity was observed
cytotoxicity in negative control group ([2]; MDCK cells, sample of 10 times dilution in the 1 mM group): cytotoxicity was observed
CPE test (virus replication in the cell wells) ([3]; 0.2 mM EGCG + B/Lee virus, 1 minute, first experiment, dilution factor 10^1, wells 1-10): +
CPE test (virus replication in the cell wells) ([3]; 0.2 mM EGCG + B/Lee virus, 1 minute, first experiment, dilution factor 10^2, wells 1-10): +
CPE test (virus replication in the cell wells) ([3]; 0.2 mM EGCG + B/Lee virus, 1 minute, first experiment, dilution factor 10^3, wells 1-10): +
CPE test (virus replication in the cell wells) ([3]; 0.2 mM EGCG + B/Lee virus, 1 minute, first experiment, dilution factor 10^4, wells 1-10): +
CPE test (virus replication in the cell wells) ([3]; 0.2 mM EGCG + B/Lee virus, 1 minute, first experiment, dilution factor 10^5, wells 1-10): − and +
CPE test (virus replication in the cell wells) ([3]; 0.2 mM EGCG + B/Lee virus, 1 minute, first experiment, dilution factor 10^6, wells 1-10): − and +
CPE test (virus replication in the cell wells) ([3]; 0.2 mM EGCG + B/Lee virus, 1 minute, first experiment, dilution factor 10^7, wells 1-10): −
CPE test (virus replication in the cell wells) ([3]; 0.2 mM EGCG + B/Lee virus, 1 minute, first experiment, dilution factor 10^8, wells 1-10): −
CPE test (virus replication in the cell wells) ([3]; 0.2 mM EGCG + B/Lee virus, 1 minute, second experiment, dilution factor 10^1, wells 1-10): +
CPE test (virus replication in the cell wells) ([3]; 0.2 mM EGCG + B/Lee virus, 1 minute, second experiment, dilution factor 10^2, wells 1-10): +
CPE test (virus replication in the cell wells) ([3]; 0.2 mM EGCG + B/Lee virus, 1 minute, second experiment, dilution factor 10^3, wells 1-10): +
CPE test (virus replication in the cell wells) ([3]; 0.2 mM EGCG + B/Lee virus, 1 minute, second experiment, dilution factor 10^4, wells 1-10): +
CPE test (virus replication in the cell wells) ([3]; 0.2 mM EGCG + B/Lee virus, 1 minute, second experiment, dilution factor 10^5, wells 1-10): +
CPE test (virus replication in the cell wells) ([3]; 0.2 mM EGCG + B/Lee virus, 1 minute, second experiment, dilution factor 10^6, wells 1-10): − and +
CPE test (virus replication in the cell wells) ([3]; 0.2 mM EGCG + B/Lee virus, 1 minute, second experiment, dilution factor 10^7, wells 1-10): −
CPE test (virus replication in the cell wells) ([3]; 0.2 mM EGCG + B/Lee virus, 1 minute, second experiment, dilution factor 10^8, wells 1-10): −
average inactivation efficiency against virus ([3]; 0.2 mM EGCG, 1 minute): 18.45%
CPE test (virus replication in the cell wells) ([3]; 1 mM EGCG + B/Lee virus, 1 minute, first experiment, dilution factor 10^3, wells 1-10): +
CPE test (virus replication in the cell wells) ([3]; 1 mM EGCG + B/Lee virus, 1 minute, first experiment, dilution factor 10^4, wells 1-10): +
CPE test (virus replication in the cell wells) ([3]; 1 mM EGCG + B/Lee virus, 1 minute, first experiment, dilution factor 10^5, wells 1-10): +
CPE test (virus replication in the cell wells) ([3]; 1 mM EGCG + B/Lee virus, 1 minute, first experiment, dilution factor 10^6, wells 1-10): −
CPE test (virus replication in the cell wells) ([3]; 1 mM EGCG + B/Lee virus, 1 minute, first experiment, dilution factor 10^7, wells 1-10): −
CPE test (virus replication in the cell wells) ([3]; 1 mM EGCG + B/Lee virus, 1 minute, first experiment, dilution factor 10^8, wells 1-10): −
CPE test (virus replication in the cell wells) ([3]; 1 mM EGCG + B/Lee virus, 1 minute, second experiment, dilution factor 10^3, wells 1-10): +
CPE test (virus replication in the cell wells) ([3]; 1 mM EGCG + B/Lee virus, 1 minute, second experiment, dilution factor 10^4, wells 1-10): +
CPE test (virus replication in the cell wells) ([3]; 1 mM EGCG + B/Lee virus, 1 minute, second experiment, dilution factor 10^5, wells 1-10): +
CPE test (virus replication in the cell wells) ([3]; 1 mM EGCG + B/Lee virus, 1 minute, second experiment, dilution factor 10^6, wells 1-10): − and +
CPE test (virus replication in the cell wells) ([3]; 1 mM EGCG + B/Lee virus, 1 minute, second experiment, dilution factor 10^7, wells 1-10): −
CPE test (virus replication in the cell wells) ([3]; 1 mM EGCG + B/Lee virus, 1 minute, second experiment, dilution factor 10^8, wells 1-10): −
CPE test (virus replication in the cell wells) ([3]; 1 mM EGCG + B/Lee virus, 5 minute, first experiment, dilution factor 10^2, wells 1-10): +
CPE test (virus replication in the cell wells) ([3]; 1 mM EGCG + B/Lee virus, 5 minute, first experiment, dilution factor 10^3, wells 1-10): +
CPE test (virus replication in the cell wells) ([3]; 1 mM EGCG + B/Lee virus, 5 minute, first experiment, dilution factor 10^4, wells 1-10): +
CPE test (virus replication in the cell wells) ([3]; 1 mM EGCG + B/Lee virus, 5 minute, first experiment, dilution factor 10^5, wells 1-10): +
CPE test (virus replication in the cell wells) ([3]; 1 mM EGCG + B/Lee virus, 5 minute, first experiment, dilution factor 10^6, wells 1-10): −
CPE test (virus replication in the cell wells) ([3]; 1 mM EGCG + B/Lee virus, 5 minute, first experiment, dilution factor 10^7, wells 1-10): −
CPE test (virus replication in the cell wells) ([3]; 1 mM EGCG + B/Lee virus, 5 minute, first experiment, dilution factor 10^8, wells 1-10): −
CPE test per cell well ([3]; 1 mM EGCG + B/Lee virus, 5 minute, second experiment, dilution factor 10^1, wells 1-10): +
CPE test per cell well ([3]; 1 mM EGCG + B/Lee virus, 5 minute, second experiment, dilution factor 10^2, wells 1-10): +
CPE test per cell well ([3]; 1 mM EGCG + B/Lee virus, 5 minute, second experiment, dilution factor 10^3, wells 1-10): +
CPE test per cell well ([3]; 1 mM EGCG + B/Lee virus, 5 minute, second experiment, dilution factor 10^4, wells 1-10): +
CPE test per cell well ([3]; 1 mM EGCG + B/Lee virus, 5 minute, second experiment, dilution factor 10^5, wells 1-10): + and −
CPE test per cell well ([3]; 1 mM EGCG + B/Lee virus, 5 minute, second experiment, dilution factor 10^6, wells 1-10): −
CPE test per cell well ([3]; 1 mM EGCG + B/Lee virus, 5 minute, second experiment, dilution factor 10^7, wells 1-10): −
CPE test per cell well ([3]; 1 mM EGCG + B/Lee virus, 5 minute, second experiment, dilution factor 10^8, wells 1-10): −
average inactivation efficiency against virus ([3]; 1 mM EGCG, 1 minute): 28.74%
average inactivation efficiency against virus ([3]; 1 mM EGCG, 5 minutes): 18.45%
CPE test (virus replication in the cell wells) ([3]; 5 mM EGCG + B/Lee virus, 1 minute, first experiment, dilution factor 10^4, wells 1-10): +
CPE test (virus replication in the cell wells) ([3]; 5 mM EGCG + B/Lee virus, 1 minute, first experiment, dilution factor 10^5, wells 1-10): +
CPE test (virus replication in the cell wells) ([3]; 5 mM EGCG + B/Lee virus, 1 minute, first experiment, dilution factor 10^6, wells 1-10): −
CPE test (virus replication in the cell wells) ([3]; 5 mM EGCG + B/Lee virus, 1 minute, first experiment, dilution factor 10^7, wells 1-10): −
CPE test (virus replication in the cell wells) ([3]; 5 mM EGCG + B/Lee virus, 1 minute, first experiment, dilution factor 10^8, wells 1-10): −
CPE test (virus replication in the cell wells) ([3]; 5 mM EGCG + B/Lee virus, 1 minute, second experiment, dilution factor 10^4, wells 1-10): +
CPE test (virus replication in the cell wells) ([3]; 5 mM EGCG + B/Lee virus, 1 minute, second experiment, dilution factor 10^5, wells 1-10): − and +
CPE test (virus replication in the cell wells) ([3]; 5 mM EGCG + B/Lee virus, 1 minute, second experiment, dilution factor 10^6, wells 1-10): −
CPE test (virus replication in the cell wells) ([3]; 5 mM EGCG + B/Lee virus, 1 minute, second experiment, dilution factor 10^7, wells 1-10): −
CPE test (virus replication in the cell wells) ([3]; 5 mM EGCG + B/Lee virus, 1 minute, second experiment, dilution factor 10^8, wells 1-10): −
CPE test (virus replication in the cell wells) ([3]; 5 mM EGCG + B/Lee virus, 5 minute, first experiment, dilution factor 10^4, wells 1-10): + and −
CPE test (virus replication in the cell wells) ([3]; 5 mM EGCG + B/Lee virus, 5 minute, first experiment, dilution factor 10^5, wells 1-10): + and −
CPE test (virus replication in the cell wells) ([3]; 5 mM EGCG + B/Lee virus, 5 minute, first experiment, dilution factor 10^6, wells 1-10): − and +
CPE test (virus replication in the cell wells) ([3]; 5 mM EGCG + B/Lee virus, 5 minute, first experiment, dilution factor 10^7, wells 1-10): − and +
CPE test (virus replication in the cell wells) ([3]; 5 mM EGCG + B/Lee virus, 5 minute, first experiment, dilution factor 10^8, wells 1-10): −
CPE test per cell well ([3]; 5 mM EGCG + B/Lee virus, 5 minute, second experiment, dilution factor 10^4, wells 1-10): +
CPE test per cell well ([3]; 5 mM EGCG + B/Lee virus, 5 minute, second experiment, dilution factor 10^5, wells 1-10): − and +
CPE test per cell well ([3]; 5 mM EGCG + B/Lee virus, 5 minute, second experiment, dilution factor 10^6, wells 1-10): −
CPE test per cell well ([3]; 5 mM EGCG + B/Lee virus, 5 minute, second experiment, dilution factor 10^7, wells 1-10): −
CPE test per cell well ([3]; 5 mM EGCG + B/Lee virus, 5 minute, second experiment, dilution factor 10^8, wells 1-10): −
average inactivation efficiency against virus ([3]; 5 mM EGCG, 1 minute): 52.43%
average inactivation efficiency against virus ([3]; 5 mM EGCG, 5 minutes): 36.90%
